Data: paper PMC8305076, “Comprehensive Evaluation of Biological Effects of Pentathiepins on Various Human Cancer Cell Lines and Insights into Their Mode of Action” (International Journal of Molecular Sciences, 2021)

Key:
Format in all cases: cell-based, human
HAP-1.KO.GPx1 = experiment: annexin V-FITC/PI apoptosis assay; details: for early apoptotic cells: pentathiepins IC90, doxorubicin 0.5 µM, 24 h
Protocol: As reported in our earlier publication, a representative pentathiepin was capable of inducing apoptosis in cancer cell lines. Here, we tested compounds 1–6 for their ability to trigger this particular modality of cell death in a subset of four cell lines: HAP-1, HAP-1.KO.GPx1, A2780, and Siso. A flow cytometric assay was performed, allowing us to discriminate between viable, early, and late apoptotic cells (representative dot plots can be found in Figure S47). FITC-labeled annexin V was used to assess the externalization of phosphatidyl serine as a hallmark of early apoptosis induction. The addition of propidium iodide (PI) enabled the detection of late apoptotic cells as it only permeates porous cell membranes and exerts fluorescence once bound to double-stranded DNA.
The annexin V-FITC/PI assay, which discriminates between viable, early, and late apoptotic cells within a sample population, was performed according to the manufacturer’s instructions (Miltenyi Biotec, Teterow, Germany). Briefly, 125,000 cells were seeded in 2 mL per well of a 6-well plate, allowed to adhere overnight, and subsequently treated with the respective pentathiepin (IC90, see Table S4) diluted in 3 mL of medium. After incubation periods of 6, 24, or 48 h, the cells were harvested, washed with the provided binding buffer, and stained with the annexin V-FITC reagent for 20 min at room temperature (RT) in the dark. After another washing step, the pellet was resuspended, and PI was added immediately before flow cytometric measurement at λEx/Em = 488/525 ± 50 nm for FITC and λEx/Em = 488/655–730 nm for PI with the MACSquant Analyzer 10 (Miltenyi Biotec, Teterow, Germany).

PARP1 in A2780 = experiment: Western blot of cleaved PARP1; details: IC90, 24 h
Protocol: (§1) In addition to general flow cytometric and microscopic analyses, Western blotting was performed to detect the apoptosis-relevant protein PARP1 (poly(ADP-ribose) polymerase 1) and its cleavage fragment (Figure 17 and Figures S29–S34). Full-length PARP1 (116 kDa) is involved in DNA repair, and a cleavage by caspases (fragment sizes 24 and 89 kDa) caused by caspase-3 and -7 is a hallmark of late apoptosis.
(§2) All detected specific bands were normalized to the total protein load per lane by the TGX stain-free gel system from Bio-Rad.
(§3) All Western blot analyses were performed with reagents, material, and devices purchased from Bio-Rad (Feldkirchen, Germany) if not stated otherwise. To obtain protein lysates, we seeded cells and treated them as described for the other methods. […] Cells were harvested by trypsinization and centrifugation for 5 min at 500× g. After a washing step with PBS, the cell pellet was resuspended in lysis buffer (Tris 50 mM (pH 7.4), 100 mM NaCl, 100 mM NaF, 5 mM EDTA, 0.2 mM Na3VO4, 0.1% Triton-X, and 1% protease inhibitor cocktail added immediately before use). Lysis was supported by incubating the samples for 10 min in an ultrasonic bath before centrifuging for 10 min at 18,000 × g and 4 °C. Protein quantification was performed via the Bradford method using ROTI®nanoquant reagent (Carl Roth GmbH, Karlsruhe, Germany) and bovine serum albumin as calibration standard. For electrophoretic separation, 15–40 µg of protein was loaded per well of a polyacrylamide gel (Mini- or Midi-Protean® TGX stain-free gel, Bio-Rad, Feldkirchen, Germany), and subsequent blotting was performed with Trans-Blot®Turbo™TransferPack Mini or Midi PVDF membranes from Bio-Rad (Feldkirchen, Germany). The membranes were blocked with a 10% non-fat milk powder solution in Tris-buffered saline (TBS; 2.42 g/L Tris, 8.48 g/L NaCl in water) plus 0.5% Tween-20 (TBST) for 1 h at RT. Incubation with primary antibodies took place over night at 4 °C in a 1:1000 dilution in TBST containing BSA (1%). The secondary antibodies conjugated to horse-radish peroxidase were diluted 1:10,000 in TBST and 1% BSA, and incubated for 4 h at RT. A detection step followed, applying Clarity™Western ECL substrate with subsequent imaging via the INTAS Advanced Fluorescence Imager. Between all incubation steps, the blots were washed three times for 10 min with TBST. The bands were quantified with the ImageLab software and normalized using the total protein quantification of the TGX stain-free gel system from Bio-Rad.

PARP1 in Siso = experiment: Western blot of cleaved PARP1; details: IC90, 24 h
Protocol: as §1, §2, §3

PATU-8902 = experiment: cell cycle analysis (PI staining); details: IC90, 24 and 48 h (Figure 19b)
Protocol: The potent cytotoxicity and the potential to inhibit the proliferation of cancer cells accompanied by DNA damage effects raised the question as to whether cell cycle progression might be affected as a result of treatment with pentathiepins.
Cells were harvested by trypsinization, collected in 1.5 mL tubes, and washed twice with PBS by centrifuging for 5 min at 500× g and discarding the supernatant after every step. For fixation, 500 µL of ice-cold ethanol (70%) was added dropwise under vortexing with a subsequent incubation on ice for 30 min. Then, the cells were centrifuged for 10 min at 4000 rpm and 4 °C, the supernatant was removed, and the cells were resuspended in 500 µL of PBS containing 25 µg/mL of PI and 100 µg/mL of RNase. The staining solution was incubated for 30 min, and the cell suspension was measured at λEx/Em = 488/655–730 nm using a MACSquant Analyzer 10 (Miltenyi Biotec, Teterow, Germany).

In the case of CCOc1c2c(c3ccc(C(=O)N4CCOCC4)cn13)SSSSS2 [Compound 3, (6-Ethoxy-[1,2,3,4,5]pentathiepino[6,7-a]indolizin-9-yl)(morpholino)methanone], the late apoptotic cells (HAP-1.KO.GPx1; IC90, 24 h) is reported as 6%, the early apoptotic cells (HAP-1.KO.GPx1) is reported as 34% and the “fraction of 89 kDa PARP1” value (PARP1 in A2780) is reported as “very small and only confirmed after treatment with pentathiepins 3 or 5”. For the same compound, the “fraction of 89 kDa PARP1” value (PARP1 in Siso) was “very small and only confirmed after treatment with pentathiepins 3 or 5” and the “increase of S-phase cells” value (PATU-8902) was “up to 14%”.
For CCOc1c2c(c3ccc(C(=O)N(CC)CC)cn13)SSSSS2 [Compound 4, 6-Ethoxy-N,N’-diethyl-[1,2,3,4,5]pentathiepino[6,7-a]indolizine-9-carboxamide], the “increase of S-phase cells” value (PATU-8902) was “up to 14%”.
For CCOc1c2c(c3ccc(C(=O)N4CCN(C(=O)c5ccc(F)cc5)CC4)cn13)SSSSS2 [Compound 5, (6-Ethoxy-[1,2,3,4,5]pentathiepino[6,7-a]indolizin-9-yl)(4-(4-fluorobenzoyl)piperazinyl)methanone], the early apoptotic cells (HAP-1.KO.GPx1) was 15%, the “fraction of 89 kDa PARP1” value (PARP1 in A2780) was “very small and only confirmed after treatment with pentathiepins 3 or 5” and the “fraction of 89 kDa PARP1” value (PARP1 in Siso) was “very small and only confirmed after treatment with pentathiepins 3 or 5”.
